≈ marks a conversion by molar mass, not a printed value.

The experiment deals with α-amylase. Nature of the experiment: DNS colorimetric alpha-amylase inhibition assay with starch. The format is biochemical.
By IC50 is commonly meant the midpoint of a concentration-inhibition curve. In the case of `COc1cc2cc(Oc3ccc4ccc(=O)oc4c3)c(=O)oc2cc1O` [compound 2, 6'-Methoxy-7'-hydroxy-3'-O-7-bicoumarin], the IC50 is 710 µg/mL (≈ 2020 µM).

For `O=c1cc(-c2ccc(O)c(O)c2)oc2cc(O)cc(O)c12` [luteolin, reference compound], the half-maximal inhibitory concentration (IC50) is 630 µg/mL (≈ 2200 µM).

For `COc1cc(O[C@@H]2O[C@H](CO[C@@H]3OC[C@@H](O)[C@H](O)[C@H]3O)[C@@H](O)[C@H](O)[C@H]2O)c2c(=O)cc(-c3ccc(O)cc3)oc2c1` [compound 1, 5-[(β)-D-xylopyranoside-(1'''→6'')-β-D-glucopyranoside] 7-Methoxy apigenin], the IC50 is 1320 µg/mL (≈ 2280 µM).

Regarding `COc1cc([C@H]2OC[C@H]3[C@@H]2CO[C@@H]3c2ccc(O)c(OC)c2)ccc1O` [compound 3, 4,4'-dihydroxy-3,3'-dimethoxy-7, 9’:7’, 9-diepoxylignan], the IC50 was determined as 1810 µg/mL (≈ 5050 µM).

For the origin of these results see publication PMC12606866, “Phenolic Compounds from Diarthron iranica: Enzymatic and in Silico Insights Into α-Amylase Inhibitory Activity” (Iranian Journal of Pharmaceutical Research : IJPR, 2025).
